Experimental data from patent US8148347B2, “Inhibition of interaction of PSD93 and PSDS95 with nNOS and NMDA receptors” (The Johns Hopkins University, priority 2000, dated 2012).

Tests used:
Male Sprague-Dawley rats [1] = test: measurement of isoflurane MAC (tail clamp); format: in vivo, rat; conditions: for MAC (isoflurane): mean ± SD
Description: The ODNs were dissolved in saline before administration. As described in the previous work,^49 the rats were injected intrathecally with saline (10 μl) (control), antisense ODNs (12.5, 25, 50 μg/10 μl), sense ODN (50 μg/10 μl) and missense ODN (50 μg/10 μl), respectively, followed by an injection of 10 μl of saline to flush the catheter, every 24 h for 4 days.
On the fifth day after saline or ODNs injection, each rat was placed in a clear plastic cone and anesthetized with 5% isoflurane in oxygen for three to five minutes. After tracheostomy, the trachea of each animal was intubated with a 16-gauge polyethylene catheter. The inspired isoflurane concentration was reduced to 2%, and the animals breathed spontaneously until cannulation of a carotid artery and a jugular vein with PE-50 tubing was accomplished. The isoflurane concentration was decreased further to 1.5%, and ventilation was controlled by a Harvard Animal Respirator (Harvard Apparatus, South Natick, Mass.) adjusted according to the measurement of arterial blood gases to maintain normal partial pressure of oxygen (PO2=91-94 mmHg), partial pressure of carbon dioxide (PCO2=33-41 mmHg) and pH (7.4-7.44). Electrocardiography and systolic and diastolic blood pressure were monitored using a Grass Polygraph (Astroumed Grass, Quincy, Mass.) and Gould Pressure Transducer (Gould, Cleveland, Ohio). Rectal temperature was maintained between 36.5 and 37.5° C. by use of a heating blanket and warming lights.
A PE-10 catheter was introduced through and beyond the endotracheal tube until obstruction to passage was met and then withdrawn 1 to 2 mm. For isoflurane MAC measurement, the PE-10 catheter was connected to a parameter airway gas monitor (Datex-Engstrom, Inc., Tewksbury, Mass.). After stabilizing about 30 minutes, MAC was measured according to the methods described previously^34 using a long hemostat (8-inch Rochester Dean Hemostatic Forceps) clamped to the first ratchet lock on the tail for 1 min. The tail was always stimulated proximal to a previous test site. Gross movement of the head, extremities, or body was taken as a positive test result, whereas grimacing, swallowing, chewing, or tail flick were considered negative results. The isoflurane concentration was reduced in decrements of 0.12 to 0.15% until the negative response became positive, with 12-15 min equilibration allowed after changes in concentration.^50,51 The MAC was considered to be the concentration midway between the highest concentration that permitted movement in response to the stimulus and the lowest concentration that prevented movement. Finally, intrathecal PE-10 catheter position from each animal was confirmed.
In some saline-treated rats, after initial baseline MAC determination, NMDA at the dose of 1.25 μg^38 or saline was injected intrathecally in a volume of 10 μl saline, followed by an injection of 10 μl saline to flush the catheter. Fresh NMDA solution was prepared for each experiment. […] At this isoflurane concentration, 10 min after the intrathecal injection of NMDA, the animals were tested again for reactivity to tail clamp. The concentration of isoflurane was increased, and response to tail clamp was checked every 12-15 min thereafter until a negative response was achieved. In some antisense ODN (50 μg)-treated rats, after initial MAC determination, NMDA or saline was also administered intrathecally. The MAC for isoflurane was again determined following the aforementioned procedures.

Male Sprague-Dawley rats [2] = test: formalin-induced pain behaviors (flinches and shakes); format: in vivo, rat; conditions: for reduction of the number of flinches and shakes evoked by formalin: 50 μg intrathecal
Description: All of the experiments were carried out with the approval of the Animal Care Committee at the Johns Hopkins University. Thirty-eight male Sprague-Dawley rats (250-300 g, Hilltop Laboratory Animals, Scottsdale, Pa., USA) were implanted with an intrathecal PE-10 catheter at the rostral level of the spinal cord lumbar enlargement according to the method described by Yaksh and Rudy. After 4 to 7 days of recovery, they were intrathecally injected with one of the following agents every 24 hours for 4 consecutive days: saline (10 μl, n=6), PSD-95 antisense oligodeoxynucleotide (ODN) (12.5 μg/10 μl, n=6; 25 μg/10 μl, n=6; 50 μg/10 μl, n=6), sense ODN (50 μg/10 μl, n=5) or missense ODN (50 μg/10 μl, n=9). On the fifth day, formalin (4%, 100 μl) was injected into one of the hindpaws. The number of flinches and shakes of the injected paw was assessed for 1 hour. The observational session was divided into phasic (0-10 min) and tonic (10-60 min) periods. Rats were sacrificed two hours after formalin injection and their lumbar spinal cords were harvested for c-fos immunohistochemistry.

[3] = 50 μg intrathecal every 24 h for 4 days

| Substance | decrease from isoflurane control MAC (Male Sprague-Dawley rats [1]; 12.5 μg) | MAC (isoflurane) (Male Sprague-Dawley rats [1]; 12.5 μg intrathecal every 24 h for 4 days) | decrease from isoflurane control MAC (Male Sprague-Dawley rats [1]; 25 μg) | MAC (isoflurane) (Male Sprague-Dawley rats [1]; 25 μg intrathecal every 24 h for 4 days) | decrease from isoflurane control MAC (Male Sprague-Dawley rats [1]; 50 μg) | MAC (isoflurane) (Male Sprague-Dawley rats [1]; [3]) | increase in isoflurane MAC after NMDA compared to 50 μg antisense ODN alone (Male Sprague-Dawley rats [1]; pretreated with 50 μg antisense ODN, intrathecal NMDA 1.25 μg) | reduction of the number of flinches and shakes evoked by formalin (Male Sprague-Dawley rats [2]; phasic period (0-10 min)) | reduction of the number of flinches and shakes evoked by formalin (Male Sprague-Dawley rats [2]; tonic period (10-60 min)) | changes in the number of flinches and shakes vs saline-treated group (Male Sprague-Dawley rats [2]; 12.5 and 25 μg, phasic and tonic periods) | change of the value for isoflurane MAC compared to the control group (Male Sprague-Dawley rats [1]; 50 μg intrathecal) | difference in the number of flinches and shakes vs saline-treated group (Male Sprague-Dawley rats [2]; 50 μg/10 μl, either period) |
| --- | --- | --- | --- | --- | --- | --- | --- | --- | --- | --- | --- | --- |
| 5′-TGTGATCTCCTCATACTC-3′ (DNA, backbone and methylation of C not given here; listed as Rattus rattus) [antisense oligonucletide corresponding to the PDZ domain nucleotides 241 to 258 of rat PSD-95/SAP90 mRNA] | 1% | 1.15 ± 0.18 | 18% | 0.98 ± 0.14 | 44% | 0.72 ± 0.05 | did not result in a significant increase | but not in the phasic period | 59% | failed to produce significant changes |  |  |
| 5′-AAGCCCTTGTTCCCATTT-3′ (DNA, backbone and methylation of C not given here; listed as Rattus rattus) [MS, missense OND control, reference compound] |  |  |  |  |  | 1.13 ± 0.15 |  |  |  |  | did not significantly change | did not show any significant difference |
